In BigSolDB 2.1:

N[C@H](Cc1c[nH]c2ccccc12)C(=O)O
solubility (mole fraction)
Conditions	283.15 K	288.15 K	293.15 K	298.15 K	303.15 K	308.15 K	313.15 K	318.15 K	323.15 K	328.15 K
in DMSO	–	–	0.00359	0.00381	0.00464	0.00551	0.00596	0.00705	0.00778	0.00911
in acetonitrile	5.75e-05	6.84e-05	8.14e-05	0.000107	0.000128	0.00015	0.000206	0.000241	0.000307	0.000372
in ethyl acetate	0.000238	0.000302	0.000376	0.000476	0.000541	0.000699	0.000837	0.00115	0.00141	0.0018
in ethylene glycol	0.00148	0.00167	0.00246	0.00318	0.00437	0.00547	0.00804	0.00999	0.0125	0.0161
in n-butanol	1.97e-05	2.21e-05	2.99e-05	3.52e-05	4.81e-05	5.68e-05	7.9e-05	9.26e-05	0.00012	0.000137
in n-octanol	1.36e-05	1.53e-05	1.88e-05	2.49e-05	2.8e-05	3.61e-05	4.02e-05	4.83e-05	5.87e-05	6.53e-05
in n-propanol	4.51e-05	6.23e-05	7.27e-05	8.69e-05	0.000111	0.000127	0.000157	0.000177	0.000219	0.000244
